Legend:
MV4; 11 cells = test: inhibiting the growth of MV4; 11 cells; assay type: cell-based; details: Homo sapiens
hClpP = molecular target: T1, hClpP (Homo sapiens, UniProt Q16740); test: activating ClpP hydrolysis of FITC-casein (fluorescence kinetic detection); assay type: biochemical; details: hClpP 1 μM, FITC-Casein 4 μM, 37° C.
T1 construct: made in house
Protocol: The specific procedures were as follows:
Test compounds were each prepared into a 100 mM stock solution in DMSO and stored. and 1 μL of stock solution of each of the compounds was taken and diluted to 10 mM by adding 9 μL of DMSO for later use.
The compounds of formula I of the present invention were each diluted at concentrations of 200 μM, 50 μM, 10 μM, 2 μM, 500 nM, 100 nM, 20 nM, and 2 nM in an assay buffer. 50 μL of each of the compounds at different concentrations was added to each well, with 2 replicate wells.
The protein was diluted to 4 μM in an assay buffer. 25 μL of protein was added to each well, and incubated at 37° C. for 30 min. The final concentration was 1 μM.
25 μL of FITC-Casein was added to each well. The final concentration was 4 μM. The mixture was immediately loaded on the machine for detection.
FITC-Casein and FITC-Casein+ClpP were used as negative controls.
The detection temperature was 37° C. The plate was shaken for 3 s. […] Kinetic parameters were set, and scanning was performed once every 1 min for 15 min.

T1 sequence (Q16740 57-277): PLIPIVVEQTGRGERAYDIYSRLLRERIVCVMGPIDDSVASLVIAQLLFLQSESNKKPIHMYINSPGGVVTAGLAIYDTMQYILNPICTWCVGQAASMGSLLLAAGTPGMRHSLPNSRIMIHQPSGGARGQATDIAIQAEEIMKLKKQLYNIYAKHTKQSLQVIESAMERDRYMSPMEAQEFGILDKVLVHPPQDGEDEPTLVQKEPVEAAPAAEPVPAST

Structure (SMILES) | IC50 (MV4; 11 cells) | EC50 (hClpP)
O=c1c2c(c3cccnc3n1Cc1ccccc1)CCN(CC1CC1)C2 [Compound I-1, 6-benzyl-3-(cyclopropylmethyl)-2,3,4,6-tetrahydropyrido[3,4-c][1,8]naphthyridine-5-(1H)-one] | 1000 to 10000 nM | 10000 to 100000 nM
O=c1c2c(c3cccnc3n1Cc1ccccc1)CCN(CC1CCC1)C2 [Compound I-2, 6-benzyl-3-(cyclobutylmethyl)-2,3,4,6-tetrahydropyrido[3,4-c][1,8]naphthyridine-5-(1H)-one] | 1000 to 10000 nM | 10000 to 100000 nM
O=c1c2c(c3cccnc3n1Cc1ccccc1)CCN(CC1CCCC1)C2 [Compound I-3, 6-benzyl-3-(cyclopentylmethyl)-2,3,4,6-tetrahydropyrido[3,4-c][1,8]naphthyridine-5-(1H)-one] | 1000 to 10000 nM | 10000 to 100000 nM
O=c1c2c(c3cccnc3n1Cc1ccccc1)CCN(CC1CCCCC1)C2 [Compound I-4, 6-benzyl-3-(cyclohexylmethyl)-2,3,4,6-tetrahydropyrido[3,4-c][1,8]naphthyridine-5-(1H)-one] | < 1000 nM | 10000 to 100000 nM
O=c1c2c(c3cccnc3n1Cc1ccccc1)CCN(Cc1ccccc1)C2 [Compound I-5, 3,6-dibenzyl-2,3,4,6-tetrahydropyrido[3,4-c][1,8]naphthyridine-5-(1H)-one] | < 1000 nM | 1000 to 10000 nM
O=c1c2c(c3cccnc3n1Cc1ccccc1)CCN(Cc1ccccc1F)C2 [Compound I-6, 6-benzyl-3-(2-fluorobenzyl)-2,3,4,6-tetrahydropyrido[3,4-c][1,8]naphthyridine-5-(1H)-one] | < 1000 nM | 1000 to 10000 nM
O=c1c2c(c3cccnc3n1Cc1ccccc1)CCN(Cc1ccccc1Cl)C2 [Compound I-7, 6-benzyl-3-(2-chlorobenzyl)-2,3,4,6-tetrahydropyrido[3,4-c][1,8]naphthyridine-5-(1H)-one] | < 1000 nM | 1000 to 10000 nM
O=c1c2c(c3cccnc3n1Cc1ccccc1)CCN(Cc1ccccc1Br)C2 [Compound I-8, 6-benzyl-3-(2-bromobenzyl)-2,3,4,6-tetrahydropyrido[3,4-c][1,8]naphthyridine-5-(1H)-one] | < 1000 nM | 1000 to 10000 nM
Cc1ccccc1CN1CCc2c(c(=O)n(Cc3ccccc3)c3ncccc23)C1 [Compound I-9, 6-benzyl-3-(2-methylbenzyl)-2,3,4,6-tetrahydropyrido[3,4-c][1,8]naphthyridine-5-(1H)-one] | < 1000 nM | 1000 to 10000 nM
CCc1ccccc1CN1CCc2c(c(=O)n(Cc3ccccc3)c3ncccc23)C1 [Compound I-10, 6-benzyl-3-(2-ethylbenzyl)-2,3,4,6-tetrahydropyrido[3,4-c][1,8]naphthyridine-5-(1H)-one] | < 1000 nM | 1000 to 10000 nM
COc1ccccc1CN1CCc2c(c(=O)n(Cc3ccccc3)c3ncccc23)C1 [Compound I-11, 6-benzyl-3-(2-methoxybenzyl)-2,3,4,6-tetrahydropyrido[3,4-c][1,8]naphthyridine-5-(1H)-one] | < 1000 nM | 1000 to 10000 nM
O=c1c2c(c3cccnc3n1Cc1ccccc1)CCN(Cc1cccc(F)c1)C2 [Compound I-12, 6-benzyl-3-(3-fluorobenzyl)-2,3,4,6-tetrahydropyrido[3,4-c][1,8]naphthyridine-5-(1H)-one] | < 1000 nM | < 1000 nM
O=c1c2c(c3cccnc3n1Cc1ccccc1)CCN(Cc1cccc(Cl)c1)C2 [Compound I-13, 6-benzyl-3-(3-chlorobenzyl)-2,3,4,6-tetrahydropyrido[3,4-c][1,8]naphthyridine-5-(1H)-one] | < 1000 nM | < 1000 nM
O=c1c2c(c3cccnc3n1Cc1ccccc1)CCN(Cc1cccc(Br)c1)C2 [Compound I-14, 6-benzyl-3-(3-bromobenzyl)-2,3,4,6-tetrahydropyrido[3,4-c][1,8]naphthyridine-5-(1H)-one] | < 1000 nM | < 1000 nM
Cc1cccc(CN2CCc3c(c(=O)n(Cc4ccccc4)c4ncccc34)C2)c1 [Compound I-15, 6-benzyl-3-(3-methylbenzyl)-2,3,4,6-tetrahydropyrido[3,4-c][1,8]naphthyridine-5-(1H)-one] | < 1000 nM | < 1000 nM
CCc1cccc(CN2CCc3c(c(=O)n(Cc4ccccc4)c4ncccc34)C2)c1 [Compound I-16, 6-benzyl-3-(3-ethylbenzyl)-2,3,4,6-tetrahydropyrido[3,4-c][1,8]naphthyridine-5-(1H)-one] | < 1000 nM | 1000 to 10000 nM
O=c1c2c(n3ccnc3n1Cc1ccc(C(F)(F)F)cc1)CCN(Cc1cccc(Cl)c1)C2 [Compound I-129, 7-(3-chlorobenzyl)-4-(4-trifluoromethylbenzyl)-6,7,8,9-tetrahydroimidazo[1,2-a]pyrido[3,4-e]pyrimidine-5(4H)-one] | < 1000 nM | 

Further lines, results first:

IC50 (MV4; 11 cells) | EC50 (hClpP) | Structure (SMILES)
< 1000 nM | 1000 to 10000 nM | COc1cccc(CN2CCc3c(c(=O)n(Cc4ccccc4)c4ncccc34)C2)c1 [Compound I-17, 6-benzyl-3-(3-methoxybenzyl)-2,3,4,6-tetrahydropyrido[3,4-c][1,8]naphthyridine-5-(1H)-one]
< 1000 nM | 1000 to 10000 nM | O=c1c2c(c3cccnc3n1Cc1ccccc1)CCN(Cc1ccc(F)cc1)C2 [Compound I-18, 6-benzyl-3-(4-fluorobenzyl)-2,3,4,6-tetrahydropyrido[3,4-c][1,8]naphthyridine-5-(1H)-one]
< 1000 nM | 1000 to 10000 nM | O=c1c2c(c3cccnc3n1Cc1ccccc1)CCN(Cc1ccc(Cl)cc1)C2 [Compound I-19, 6-benzyl-3-(4-chlorobenzyl)-2,3,4,6-tetrahydropyrido[3,4-c][1,8]naphthyridine-5-(1H)-one]
< 1000 nM | 1000 to 10000 nM | O=c1c2c(c3cccnc3n1Cc1ccccc1)CCN(Cc1ccc(Br)cc1)C2 [Compound I-20, 6-benzyl-3-(4-bromobenzyl)-2,3,4,6-tetrahydropyrido[3,4-c][1,8]naphthyridine-5-(1H)-one]
< 1000 nM | 1000 to 10000 nM | Cc1ccc(CN2CCc3c(c(=O)n(Cc4ccccc4)c4ncccc34)C2)cc1 [Compound I-21, 6-benzyl-3-(4-methylbenzyl)-2,3,4,6-tetrahydropyrido[3,4-c][1,8]naphthyridine-5-(1H)-one]
< 1000 nM | 1000 to 10000 nM | CCc1ccc(CN2CCc3c(c(=O)n(Cc4ccccc4)c4ncccc34)C2)cc1 [Compound I-22, 6-benzyl-3-(4-ethylbenzyl)-2,3,4,6-tetrahydropyrido[3,4-c][1,8]naphthyridine-5-(1H)-one]
< 1000 nM | 1000 to 10000 nM | COc1ccc(CN2CCc3c(c(=O)n(Cc4ccccc4)c4ncccc34)C2)cc1 [Compound I-23, 6-benzyl-3-(4-methoxybenzyl)-2,3,4,6-tetrahydropyrido[3,4-c][1,8]naphthyridine-5-(1H)-one]
1000 to 10000 nM | 10000 to 100000 nM | Cn1ccc(CN2CCc3c(c(=O)n(Cc4ccccc4)c4ncccc34)C2)n1 [Compound I-24, 6-benzyl-3-((1-methyl-1H-pyrazol-3-yl)methyl)-2,3,4,6-tetrahydropyrido[3,4-c][1,8]naphthyridine-5-(1H)-one]
1000 to 10000 nM | 10000 to 100000 nM | Cn1nccc1CN1CCc2c(c(=O)n(Cc3ccccc3)c3ncccc23)C1 [Compound I-25, 6-benzyl-3-((1-methyl-1H-pyrazol-5-yl)methyl)-2,3,4,6-tetrahydropyrido[3,4-c][1,8]naphthyridine-5-(1H)-one]
